In publication PMC2362735, “New semisynthetic vinca alkaloids: chemical, biochemical and cellular studies” (British Journal of Cancer, 1999):

How the values were obtained:
[1] = test system: tubulin/microtubule, PFK-bundled microtubules; assay: Tubulin polymerization with or without PFK (bundled vs single microtubules): turbidity and pelleting with SDS-PAGE; format: biochemical, calf; details: 10 M tubulin, 2 M drug
Description: The numerous antimitotic drugs already developed and therapeu- tically used for a large number of pathologies belong to different classes based on their chemical structure and other distinctive features. Antimitotic drugs usually target the tubulin/microtubule network of the cytoskeleton that is formed by assembly of cyto- plasmic tubulin dimers. The stability of the different microtubular structures varies considerably; some of their functions depend on their lability. The lability is augmented by the extreme sensitivity to various drugs. Several synthetic and natural compounds interact specifically with tubulin and/or microtubule, fundamentally destroying its dynamic character and leading to cell death. […] Because of their extensive clinical use, it is important to synthesize additional agents having at least the same biological activity. […] Nevertheless, it is unclear yet how the anti-calmodulin activity of these drugs is related to their desired and undesired pharmacological effects. […] The synthesis of the KAR derivatives are presented. […] Taxol, GTP and trifluoperazine were purchased from Sigma. All organic reagents for synthesis of the new compounds were obtained from Aldrich and were of the highest grade. All other chemicals were reagent grade commercial preparations. […] Tubulin was stored in 1 M sucrose, 10 mM sodium phosphate buffer, 0.5 mM magnesium chloride and 0.1 mM GTP, pH 7.0, at -80C and dialysed against the appropriate buffer before use. […] PFK, aldolase and glycerol-3-phosphate dehydrogenase- triosephosphate isomerase purified from rabbit skeletal muscle were purchased in ammonium sulphate suspensions from Sigma or Boehringer. The enzyme suspensions were centrifuged at 10 000g for 5 min. The pellets were suspended in the appropriate buffer, then the enzymes were gel filtered or dialysed in the same buffer to remove ammonium sulphate. […] (Figure 1B; R1 , CH3; R2 , CH2 CH2 Cl). […] After 2 h incubation at room temperature, 200 ml dried toluene was added to the reaction mixture. […] The mixture was stirred for 30 min. After separation of the organic phase, it was washed with water (3 x 30 ml) and dried with potassium sulphate and evaporated on a water bath of 35-40C at 20-27 hPa. The resulting material was chromatographed on silica gel (500 g, bead size of 0.040- 0.063 mm) column (30 mm x 500 mm) using ethyl acetate/ethanol (9:1) mixture as eluent. […] The mixture was kept for 4 h at room temperature and then evaporated on a water bath at 40C under a vacuum of 80 hPa to a final volume of 5-6 ml. […] (Figure 1B, R1 , CHO; R2 , CH2 CH2 Cl). […] Synthesis of KAR-4 [3-allyl-2,4-dioxo-3,5-spiro-oxazolidino- 4-deacetoxy-vinblastine] (Figure 1B; R1 , CH3; R2 , CH2 CH=CH2 ). […] NMR measurements were carried out on a Varian Unity plus-500 instrument (500 MHz for 1H and 125 MHz for 13C) in DMSO. Chemical shifts were determined relative to dTMS = 0.00 p.p.m. 1H and 13C signal assignments were verified by a concerted use of two-dimensional 1H-1H and 1H-13C shift correlation methods (DQFCOSY, HSQC, HMBC) and NOESY experiments. The gradient-enhanced DQFCOSY, HSQC, HMBC and NOESY experiments were recorded by using the standard spectrometer software package. A mixing time of tmix = 0.5 s was used for the NOESY experiments. […] Mass spectrum was recorded on a Kratos MS 80 instrument using FAB.

[2] = test system: mouse leukaemia P388; set-up: method as in Orosz et al, 1997a; details: ref Orosz et al, 1997a, cited from earlier work

## CC[C@]1(O)C[C@@H]2CN(CCc3c([nH]c4ccccc34)[C@@](C(=O)OC)(c3cc4c(cc3OC)N(C)[C@@H]3[C@]45CCN4CC=C[C@@](CC)(C[C@@]36OC(=O)N(CCCl)C6=O)[C@H]45)C2)C1 [KAR-2, 3′-(β-chloroethyl)-2′,4′-dioxo-3,5′-spiro-oxazolidino-4-deacetoxy-vinblastine]
[1]; 20 µM taxol, no PFK, SDS-PAGE of supernatant and pellet
  tubulin partition in pelleting experiment, without PFK: practically all tubulin appears in the super- natants
[1]; 2 M PFK, 20 µM taxol, SDS-PAGE of supernatant and pellet
  tubulin partition in pelleting experiment, with PFK (bundled microtubules): virtually no depolymer- izing effect
[1]; 2 M PFK, turbidity at 350 nm
  tubulin assembly by turbidity in the presence of PFK: PFK can overcome the inhibitory effect of KAR-2 on tubulin polymerization
[2]; P388, 1 mg kg-1, eightfold treatment
  T/C: 174%
[2]; P388 in vivo tests
  neurotoxic side-effects (e.g. paralysis of bladder or lower extremities): did not induce neurotoxic side-effects
